This passage reports IC50 results from patent publication US20160046618A1, “Cyclopropyl Fused Thiazin-2-Amine Compounds as Beta-Secretase Inhibitors and Methods of Use” (AMGEN INC., priority 2014, published 2016).

Like-named read-outs stand apart in the source and are kept apart here.

The test system of test [1] is Aβ40 in conditioned medium of cells stably expressing Amyloid Precursor Protein (APP). The test is described as follows: In vitro BACE-1 cell-based assay (Aβ40 sandwich ELISA). The conditions noted are these: read-out: IC50 IP (μM) BACE1 cell. Summed up: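 Read-out: time-resolved fluorescence (Streptavidin-Europium) of Aβ40 captured by pAb40 and detected with biotinylated 6E10 from supernatants of APP-stable cells. Cells were exposed to compound for 24 h, 10-point dose response, top dose 100 μM or 10 μM, 0.1% DMSO. IC50 fitted to percent of control.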

For test [2], the target named is Recombinant Cat D (Homo sapiens (Human), UniProt P07339). The test is described as follows: In vitro enzymatic Cathepsin D (Cat D) FRET assay. Format: biochemical. The conditions noted are these: read-out: IC50 IP (μM) CatD. The gist of the method:
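Human Cat D expressed in CHO cells was incubated for one hour in 0.05 M citrate pH 3.5, 5 mM CHAPS, 10% DMSO final, with 20 nM quenched FRET peptide substrate. Reactions were stopped with Tris buffer raising pH to neutrality. Cleavage was read as fluorescence at excitation 500 nm, emission 580 nm.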

Test [3] concerns the target human recombinant BACE1 (Homo sapiens (Human), UniProt P56817). The test is described as follows: In vitro enzymatic BACE1 FRET assay. Format: biochemical. The conditions noted are these: read-out: IC50 IP (μM) BACE1 enzyme. Summed up: (§1)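 Tris addition raises the pH to neutral to stop the reaction before fluorescence is measured at 590 nm emission with 488 nm excitation.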

In test [4] the target is human recombinant BACE2 (Homo sapiens (Human), UniProt Q9Y5Z0). The test is described as follows: In vitro enzymatic BACE2 FRET assay. Format: biochemical. The conditions noted are these: read-out: IC50 IP (μM) BACE2 enzyme. Summed up: as §1
Sequence of human recombinant BACE2 (Q9Y5Z0 63-518): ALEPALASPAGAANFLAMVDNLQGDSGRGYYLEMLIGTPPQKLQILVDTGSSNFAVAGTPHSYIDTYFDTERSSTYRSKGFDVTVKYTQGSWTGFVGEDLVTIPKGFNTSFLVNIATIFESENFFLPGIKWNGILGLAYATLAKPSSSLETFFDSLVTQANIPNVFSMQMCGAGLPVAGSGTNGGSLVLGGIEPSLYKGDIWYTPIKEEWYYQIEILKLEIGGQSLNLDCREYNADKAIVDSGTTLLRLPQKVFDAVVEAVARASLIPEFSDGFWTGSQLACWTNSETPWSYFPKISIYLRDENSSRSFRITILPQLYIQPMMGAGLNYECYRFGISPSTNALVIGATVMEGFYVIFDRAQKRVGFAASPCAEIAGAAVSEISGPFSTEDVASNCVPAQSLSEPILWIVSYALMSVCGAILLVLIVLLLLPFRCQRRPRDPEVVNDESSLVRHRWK

Sequence of Recombinant Cat D (P07339 65-412): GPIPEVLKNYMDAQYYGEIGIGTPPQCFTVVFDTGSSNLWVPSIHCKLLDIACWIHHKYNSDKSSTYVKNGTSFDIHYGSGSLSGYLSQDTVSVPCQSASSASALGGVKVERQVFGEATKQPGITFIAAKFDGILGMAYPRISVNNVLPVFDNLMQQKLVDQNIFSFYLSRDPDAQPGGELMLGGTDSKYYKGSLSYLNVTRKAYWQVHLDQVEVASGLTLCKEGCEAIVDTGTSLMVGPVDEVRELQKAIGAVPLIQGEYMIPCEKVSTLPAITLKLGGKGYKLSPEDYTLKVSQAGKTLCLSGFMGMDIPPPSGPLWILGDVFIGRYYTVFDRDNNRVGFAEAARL
Sequence of human recombinant BACE1 (P56817 46-501): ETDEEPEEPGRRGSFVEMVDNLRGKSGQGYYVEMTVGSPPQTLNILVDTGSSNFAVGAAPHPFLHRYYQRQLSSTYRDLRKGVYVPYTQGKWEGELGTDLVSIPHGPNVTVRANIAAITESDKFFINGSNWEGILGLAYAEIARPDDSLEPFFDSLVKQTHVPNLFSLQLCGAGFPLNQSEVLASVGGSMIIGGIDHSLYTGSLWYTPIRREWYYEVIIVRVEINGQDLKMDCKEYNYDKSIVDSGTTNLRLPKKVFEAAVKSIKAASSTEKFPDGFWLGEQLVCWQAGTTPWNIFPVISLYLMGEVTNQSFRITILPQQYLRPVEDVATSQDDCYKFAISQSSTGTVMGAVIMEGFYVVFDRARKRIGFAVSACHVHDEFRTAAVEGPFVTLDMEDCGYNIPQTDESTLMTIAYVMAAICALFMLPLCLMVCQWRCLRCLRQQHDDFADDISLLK

Usually IC50 stands for the concentration needed to halve the response being measured. Consider `C#C[C@H](C)Oc1cnc(C(=O)Nc2ccc(F)c([C@@]3(C)N=C(N)S[C@@]4(C(=O)NC)C[C@H]43)c2)cn1` [Example 978, (1S,5S,6S)-3-amino-5-(5-(5-((S)-but-3-yn-2-yloxy)pyrazine-2-carboxamido)-2-fluorophenyl)-N,5-dimethyl-2-thia-4-azabicyclo[4.1.0]hept-3-ene-1-carboxamide], for which the IC50 in test [1] is 0.000648 µM; in test [2] it was over 400 µM; in test [3], 0.000344 µM; in test [4] it was 0.0195 µM.
The corresponding values for `Cc1nc(COc2cnc3c(Nc4cc(F)c(F)c([C@@]5(C)N=C(N)S[C@@]6(C(F)F)C[C@@H]56)c4)nccc3n2)c(C)o1` [Example 886, N-(3-((1S,5S,6S)-3-amino-1-(difluoromethyl)-5-methyl-2-thia-4-azabicyclo[4.1.0]hept-3-en-5-yl)-4,5-difluorophenyl)-2-((2,5-dimethyl-1,3-oxazol-4-yl)methoxy)pyrido[3,4-b]pyrazin-5-amine] are 0.0411 µM, 136 µM, 0.0011 µM and 0.0278 µM.
In the case of `C[C@@H](Oc1cnc2c(Nc3cc(F)c(F)c([C@@]4(C)N=C(N)S[C@@]5(C(F)F)C[C@@H]45)c3)nccc2n1)c1ncco1` [Example 891, N-(3-((1S,5S,6S)-3-amino-1-(difluoromethyl)-5-methyl-2-thia-4-azabicyclo[4.1.0]hept-3-en-5-yl)-4,5-difluorophenyl)-2-((1 R)-1-(1,3-oxazol-2-yl)ethoxy)pyrido[3,4-b]pyrazin-5-amine], the IC50 in test [1] came to 2.88 µM; in test [2] it was 984 µM; in test [3], 0.177 µM; in test [4], 1.09 µM.
The corresponding values for `C#CCOc1cnc(C(=O)Nc2ccc(F)c([C@@]3(CF)N=C(N)S[C@@]4(COCC(F)(F)F)C[C@H]43)c2)cn1` [Example 953, N-(3-((1S,5S,6S)-3-amino-5-(fluoromethyl)-1-((2,2,2-trifluoroethoxy)methyl)-2-thia-4-azabicyclo[4.1.0]hept-3-en-5-yl)-4-fluorophenyl)-5-(2-propyn-1-yloxy)-2-pyrazinecarboxamide] are 0.00149 µM, 61.9 µM, 0.00028 µM and 0.0267 µM.
In the same order, the values of `C#CCOc1cnc(C(=O)Nc2cc(F)c(F)c([C@@]3(C)N=C(N)S[C@@]4(C(=O)OC)C[C@H]43)c2)cn1` [Example 975, methyl (1S,5S,6S)-3-amino-5-(2,3-difluoro-5-(((5-(2-propyn-1-yloxy)-2-pyrazinyl)carbonyl)amino)phenyl)-5-methyl-2-thia-4-azabicyclo[4.1.0]hept-3-ene-1-carboxylate] are 0.00551 µM, 212 µM, 0.000565 µM and 0.0562 µM.
The corresponding values for `NC1=N[C@](CF)(c2cc(NC(=O)c3ccc(Cl)cn3)ccc2F)[C@@H]2C[C@]2(c2ccon2)S1` [Example 786, N-(3-((1S,5S,6S)-3-amino-5-(fluoromethyl)-1-(isoxazol-3-yl)-2-thia-4-azabicyclo[4.1.0]hept-3-en-5-yl)-4-fluorophenyl)-5-chloropicolinamide] are 0.0464 µM, 584 µM, 0.000976 µM and under 0.00203 µM.
Take `Cc1ccnc(COc2cnc3c(Nc4cc(F)c(F)c([C@@]5(C)N=C(N)S[C@@]6(C(F)F)C[C@@H]56)c4)nccc3n2)n1` [Example 874, N-(3-((1S,5S,6S)-3-amino-1-(difluoromethyl)-5-methyl-2-thia-4-azabicyclo[4.1.0]hept-3-en-5-yl)-4,5-difluorophenyl)-2-((4-methyl-2-pyrimidinyl)methoxy)pyrido[3,4-b]pyrazin-5-amine]: the IC50 in test [1] is 0.0245 µM; in test [2], 956 µM; in test [3] it was 0.00361 µM; in test [4] it was 0.0755 µM.
In the same order, the values of `C#CCOc1cnc2c(Nc3ccc(F)c([C@@]4(CF)N=C(N)S[C@@]5(/C=C/C(=O)N6CC(F)(F)C6)C[C@H]54)c3)nccc2n1` [Example 773, N-(3-((1R,5S,6S)-3-amino-1-((1E)-3-(3,3-difluoro-1-azetidinyl)-3-oxo-1-propen-1-yl)-5-(fluoromethyl)-2-thia-4-azabicyclo[4.1.0]hept-3-en-5-yl)-4-fluorophenyl)-2-(2-propyn-1-yloxy)pyrido[3,4-b]pyrazin-5-amine] are 0.00148 µM, 113 µM, 0.000423 µM and under 0.00203 µM.
Take `COC[C@]12C[C@H]1[C@@](C)(c1cc(NC(=O)c3ccc(OCC(F)(F)C(F)F)cn3)cc(F)c1F)N=C(N)S2` [Example 732, N-(3-((1S,5S,6S)-3-amino-1-(methoxymethyl)-5-methyl-2-thia-4-azabicyclo[4.1.0]hept-3-en-5-yl)-4,5-difluorophenyl)-5-(2,2,3,3-tetrafluoropropoxy)-2-pyridinecarboxamide]: the IC50 stood at 0.034 µM in test [1], 600 µM in test [2], 0.00339 µM in test [3] and 0.737 µM in test [4].
The corresponding values for `C#CCOc1cnc(C(=O)Nc2ccc(F)c([C@@]3(CF)N=C(N)S[C@@]4(/C=C/C(=O)N(C)C)C[C@H]43)c2)cn1` [Example 774, N-(3-((1R,5S,6S)-3-amino-1-((1E)-3-(dimethylamino)-3-oxo-1-propen-1-yl)-5-(fluoromethyl)-2-thia-4-azabicyclo[4.1.0]hept-3-en-5-yl)-4-fluorophenyl)-5-(2-propyn-1-yloxy)-2-pyrazinecarboxamide] are 0.000583 µM, 7.95 µM, 0.000313 µM and 0.00575 µM.
In the case of `COc1cnc2c(Nc3cc(F)c(F)c([C@@]4(CF)N=C(N)S[C@H]5C[C@H]54)c3)ncnc2c1` [Example 66, N-(3-((1S,5S,6S)-3-amino-5-(fluoromethyl)-2-thia-4-azabicyclo[4.1.0]hept-3-en-5-yl)-4,5-difluorophenyl)-7-methoxypyrido[3,2-d]pyrimidin-4-amine], the IC50 in test [1] (BACE1 cell-based assay) is 0.0525 µM; in test [2] (Cathepsin D FRET enzyme assay) it was over 400 µM; in test [3] (BACE1 FRET enzyme assay), 0.0171 µM; in test [4] (BACE2 FRET enzyme assay), 0.132 µM.
For the compound `COC[C@]12C[C@H]1[C@@](C)(c1cc(NC(=O)c3ncc(O[C@@H](C)c4ncco4)nc3C)cc(F)c1F)N=C(N)S2` [Example 864, N-(3-((1S,5S,6S)-3-amino-1-(methoxymethyl)-5-methyl-2-thia-4-azabicyclo[4.1.0]hept-3-en-5-yl)-4,5-difluorophenyl)-3-methyl-5-((1S)-1-(1,3-oxazol-2-yl)ethoxy)-2-pyrazinecarboxamide], the IC50 in test [1] was determined as 0.172 µM; in test [2], 621 µM; in test [3], 0.0609 µM; in test [4] it was 0.652 µM.
In the same order, the values of `Cc1nc(COc2cnc3c(Nc4cc(F)c(F)c([C@@]5(C)N=C(N)S[C@@]6(C(F)F)C[C@@H]56)c4)nccc3n2)co1` [Example 870, N-(3-((1S,5S,6S)-3-amino-1-(difluoromethyl)-5-methyl-2-thia-4-azabicyclo[4.1.0]hept-3-en-5-yl)-4,5-difluorophenyl)-2-((2-methyl-1,3-oxazol-4-yl)methoxy)pyrido[3,4-b]pyrazin-5-amine] are 0.02 µM, 91.3 µM, 0.00156 µM and 0.0326 µM.
